Measured values taken from US11591353B2 (Mindset Pharma Inc., priority 2020, dated 2023).
pEC50, pIC50: −log10 of the molar value. Read-outs that look alike come from different tables or passages of the source.

Assays:
[1] = tobacco use disorder, cited from earlier work
[2] = biological target: human 5-HT2A (h5-HT2A) receptor (Homo sapiens (Human), UniProt P28223); test: FLIPR assay, human 5-HT2A receptor under agonist mode; assay type: cell-based; conditions: agonist mode, FLIPR calcium assay; read-out: h5-HT2A EC50
Description: • I. Assessment of the activated effect of exemplary compounds of Formula I targeting on human 5-HT2A (h5-HT2A) receptor under agonist mode: Compound Preparation and Assay Controls I.a. Reagent and Materials:
1. Culture the cells in cell culture medium (DMEM containing 10% FBS 1× penicillin-streptomycin 300 μg/ml G418 and 100 μg/ml hygromycin B) at 37° C., 5% (v/v) CO2.
2. One day before the assays, detach the cell using TrypLE™ Express and count cells using cell counter.
3. Seed 20000 cells/well in 30 μl/well culture medium to a 384-well cell plate and incubate the cells overnight at 37° C., 5% (v/v) CO2.
4. On the assay day, prepare 2× dye solution following the manual of the FLIPR® Calcium 6 Assay Kit: i. Dilute the dye with assay buffer (20 mM HEPES in 1×HBSS, PH7.4); ii. Add probenecid to the final concentration of 5 mM; iii. Vortex vigorously for 1-2 minutes.
5. Medium from cell plate by flicking the cell plate on towel papers.
6. Add 10 μl of assay buffer and 10 μl of 2× dye solution to each well of the cell plate.
7. Put the cell plate on plate shaker, agitate the plate at 600 rpm for 2 minutes. Incubate the plate at 37° C. for 2 hours followed by additional 15-minute incubation at 25° C.
8. Prepare 3× compound in assay buffer: a. Dilute reference compounds to required concentration with DMSO. Add the compounds to a 384-well compound plate; b. Perform serial dilutions; c. Add 10 mM test compounds to the compound plate, perform 3-fold serial dilutions. d. […] Add 20 μl/well assay buffer to the compound plate; f. Mix the plate on plate shaker for 2 mins;
i. The normalized fluorescence reading (RFU) is calculated as shown follow, while Fmax and Fmin stand for maximum and minimum of calcium signal during defined time window: RFU=Fmax−Fmin
ii. Calculate the percentage activation by using following equation: […]
iii. Calculate EC50 by fitting % activation against log of compound concentrations with Hill equation using XLfit.

[3] = Liver microsomes stability, human; conditions: for Remaining Percentage (%) after 60 min Human: 2 μM, 0.5 mg/mL microsomes
Description: (§1) The objective of this study was to estimate in vitro metabolic stability of I-12 in pooled human, male rat and male mouse liver microsomes. The concentrations of parent compounds in reaction systems were evaluated by LC-MS/MS for estimating the stability in pooled human, male rat and male mouse liver microsomes. The in vitro intrinsic clearances of test compounds were determined as well.
(§2) A master solution in the “Incubation Plate” containing phosphate buffer, ultra-pure H2O, MgCl2 solution and liver microsomes was made according to Table-3. The mixture was pre-warmed at 37° C. water bath for 5 minutes.
(§3) 40 μL of 10 mM NADPH solution was added to each well. The final concentration of NADPH was 1 mM. The negative control samples were prepared by replacing NADPH with 40 μL of ultra-pure H2O. Samples were prepared in duplicate. Negative controls were prepared in singlet.
(§4) The reaction was started with the addition of 4 μL of 200 μM exemplary test compounds of the application or control compounds to each master solution to get the final concentration of 2 μM. This study was performed in duplicate.
(§5) Aliquots of 50 μL were taken from the reaction solution at 0, 15, 30, 45 and 60 minutes. The reaction solutions were stopped by the addition of 4 volumes of cold methanol with IS (100 nM alprazolam, 200 nM imipramine, 200 nM labetalol and 2 μM ketoprofen). Samples were centrifuged at 3,220 g for 40 minutes. Aliquot of 90 μL of the supernatant was mixed with 90 μL of ultra-pure H2O and then was used for LC-MS/MS analysis.
(§6) LC/MS analysis was performed for all samples from this study using a Shimadzu liquid chromatograph separation system equipped with degasser DGU-20A5R; solvent delivery unit LC-30AD; system controller SIL-30AC; column oven CTO-30A; CTC Analytics HTC PAL System. Mass spectrometric analysis was performed using an Triple Quad™ 5500 instrument.
(§7) All calculations were carried out using Microsoft Excel. Peak area ratios of test compound to internal standard (listed in the below table) were determined from extracted ion chromatograms.
(§8) All calculations were carried out using Microsoft Excel. Peak areas were determined from extracted ion chromatograms. The slope value, k, was determined by linear regression of the natural logarithm of the remaining percentage of the parent drug vs. incubation time curve.
(§9) Conversion of the in vitro t1/2 (min) into the in vitro intrinsic clearance (in vitro CLint, in μL/min/mg proteins) was done using the following equation (mean of duplicate determinations): […]

[4] = biological target: human 5-HT2A receptor (Homo sapiens (Human), UniProt P28223); test: Radioligand binding assay on human 5-HT2A receptor ([3H]-ketanserin)
Description: i. Prepare the assay buffer following the table below;
ii. Preparation of 8 doses of reference and test compounds starting from 10 mM stock solution as requested by 5-fold serial dilutions with 100%;
iii. […] a. Add 50 μl/well of 0.5% (v/v) PEI to UniFilter-96 GF/B plates. Seal the plates and incubate at 4° C. for 3 hrs; b. After incubation, wash the plates 3 times with ice-cold wash buffer (50 mM Tris, pH7.4);
iv. Preparation of assay plates: a. Dilute cell membrane with assay buffer and add 330 μl/well to 96 round deep well plates to reach a concentration of 20 μg/well; b. […] Dilute [3H]-ketanserin with assay buffer to 5 nM (5× final concentration) and add 110 μl/well to 96 round deep well plates.
v. Centrifuge the plate at 1000 rpm for 30 secs and then agitate at 600 rpm, R.T. for 5 min.
vii. Stop the incubation by vacuum filtration onto GF/B filter plates followed by 4 times washing with ice-cold wash buffer (50 mM Tris, pH7.4).
ix. […]
For reference and exemplary test compounds of the application, the results are expressed as % Inhibition, using the normalization equation: N=100−100×(U−C2)/(C1−C2), where U is the unknown value, C1 is the average of high controls, and C2 is the average of low controls. The IC50 is determined by fitting percentage of inhibition as a function of compound concentrations with Hill equation using XLfit.

[5] = Liver microsomes stability, rat; conditions: for Remaining Percentage (%) after 60 min Rat: 2 μM, 0.5 mg/mL microsomes
Description: as §1, §2, §3, §4, §5, §6, §7, §8, §9

[6] = Liver microsomes stability, mouse; conditions: for Remaining Percentage (%) after 60 min Mouse: 2 μM, 0.5 mg/mL microsomes
Description: as §1, §2, §3, §4, §5, §6, §7, §8, §9

| Structure (SMILES) | abstinence rate ([1]; 12 months follow-up) [%] | abstinence rate ([1]; six months follow-up) [%] | pEC50 [2] | half-life at 2 μM ([3]; human, microsomes) [h] | microsomal CLint at 2 μM ([3]; human, microsomes) [µL/min/mg] | metabolic stability in liver microsomes (in words) ([3]; human, rat and mouse liver microsomes, 60 minute) | Remaining Percentage (%) after 60 min Human ([3]; with NADPH) [%] | pIC50 [4] | half-life at 2 μM ([5]; male, rat, microsomes) [h] | microsomal CLint at 2 μM ([5]; male, rat, microsomes) [µL/min/mg] | Remaining Percentage (%) after 60 min Rat ([5]; with NADPH) [%] | half-life at 2 μM ([6]; male, mouse, microsomes) [h] | microsomal CLint at 2 μM ([6]; male, mouse, microsomes) [µL/min/mg] | Remaining Percentage (%) after 60 min Mouse ([6]; with NADPH) [%] | CLint (μL/min/mg protein) Human ([3]; with NADPH) [μL/min/mg protein] | t1/2 (min) Human ([3]; with NADPH) [min] | CLint (μL/min/mg protein) Rat ([5]; with NADPH) [μL/min/mg protein] | t1/2 (min) Rat ([5]; with NADPH) [min] | CLint (μL/min/mg protein) Mouse ([6]; with NADPH) [μL/min/mg protein] | t1/2 (min) Mouse ([6]; with NADPH) [min] |
| --- | --- | --- | --- | --- | --- | --- | --- | --- | --- | --- | --- | --- | --- | --- | --- | --- | --- | --- | --- | --- |
| CN(C)CCc1c[nH]c2cccc(OP(=O)(O)O)c12 [psilocybin, 4-phosphoryloxy-N,N-dimethyltrypatmine] | 67 | 80 | – | – | – | – | – | – | – | – | – | – | – | – | – | – | – | – | – | – |
| [2H]C([2H])([2H])N(C([2H])([2H])[2H])C([2H])([2H])C([2H])([2H])c1c[nH]c2cccc(OCc3ccccc3)c12 [Compound I-46, 2-(4-(benzyloxy)-1H-indol-3-yl)-N,N-bis(methyl-d3)ethan-1-amine-1,1,2,2-d4] | – | – | 7.14 | 1.31 | 17.6 | rapidly metabolized | 58.94 | 6.97 | 0.593 | 39 | 108.23 | 0.862 | 26.8 | 44.75 | – | – | – | – | – | – |
| CN(C)CCc1c[nH]c2cccc(O)c12 [Psilocin, 4-hydroxy-N,N-dimethyltryptamine, reference compound] | – | – | – | – | – | – | 70.16 | – | – | – | 62.68 | – | – | 96.89 | 11.81 | 117.32 | 15.57 | 89.01 | 9.78 | 141.71 |
